Reference: EP0539587A1, “ANTI[…]” (TSUMURA & CO., priority 1991, dated 1992)
Counter-ions that a name gives are not always drawn.

Key:
[1] = molecular target: Human immunodeficiency virus reverse transcriptase (Human immunodeficiency virus type 1 group M subtype B, UniProt P04585); experiment: Effects on reverse transcriptase activity ([3H]deoxythymidine triphosphate uptake into DNA); assay type: biochemical; conditions: reverse transcriptase inhibitory activity; 30 minutes at 37°C; polyrA-oligo dT template-primer; read-out: 50% inhibitory concentration (IC50) (converted)
Procedure: A reaction mixture having the composition indicated below was prepared.
50 µl of this reaction mixture was allowed to react for 30 minutes at 37°C.
Quantitative determination of the reaction product in the form of DNA was performed by measuring the uptake of the radioactivity of [³H]deoxythymidine triphosphate into DNA using ion exchange filter paper, taking that to represent reverse transcriptase inhibitory activity, and calculating the 50% inhibitory concentration (IC₅₀) of the test compound.

[2] = tested on: human immunodeficiency virus; experiment: Test of anti-AIDS virus activity using clone H9 cells (p24 antigen in culture supernatant); assay type: cell-based; conditions: Human immunodeficiency virus 1, 120 h, p24 antigen in culture supernatant after 5 days, read-out: Rate of Inhibition (%)
Procedure: 1 x 10⁶ clone H9 cells (©T-cells) were placed in individual culture tubes. The serially diluted test drug was then placed in each tube. Roughly 100TCID₅₀ of human immunodeficiency virus (culture supernatant of H9/HTLV-IIIB cells) were then placed in each tube to infect the above-mentioned cells. After incubating the tubes for 1 hour at 37°C in the presence of 5% CO₂, the unabsorbed viral particles and test substance were removed by centrifugal separation (x3000 g, 5 minutes). Moreover, after again centrifugally washing (x3000 g, 5 minutes) the cells with fresh culture liquid, fresh culture liquid was added to each tube to prepare cell suspensions having a concentration of 0.2 x 10⁶ cells per milliliter. 0.5 ml of these cell suspensions were added to each well of a 24 well culture plate containing 0.5 ml of the serially diluted test drug. After incubating this plate for 5 days at 37°C in the presence of 5% CO₂, the amount of p24, which is the human immunodeficiency virus antigen in the culture supernatant, was measured, followed by calculation of the rate of inhibition (%) at the concentrations of the test drug indicated below.

O=C(O)/C=C(\C(=O)O[C@H]1[C@@H]2OC(=O)c3cc(O)c(O)c(O)c3-c3c(cc(O)c(O)c3O)C(=O)OC[C@H]1O[C@@H](OC(=O)c1cc(O)c(O)c(O)c1)[C@@H]2O)[C@H]1c2c(cc(O)c(O)c2O)C(=O)O[C@@H]1C(=O)O [Specific Example 1, repandusinic acid A monopotassium salt]
IC50 [1]: 0.103 µM | inhibition at 0.195 µg/mL ([2]; 0.195 µg/ml): 27.8% | inhibition at 3.125 µg/mL ([2]; 3.125 µg/ml): 66.7% | inhibition at 12.5 µg/mL ([2]; 12.5 µg/ml): 94.4%
